Tested on: Mycobacterium tuberculosis
Test: Antimycobacterial activity against ethambutol/isoniazid/rifampicin-resistant Mycobacterium tuberculosis incubated for 7 days by rapid direct susceptibility test
Format: functional
Conditions: 168 h

NNC(=O)c1ccncc1 [ISONIAZID]
MIC: > 128 mg/L
